Measurements published in PubChem BioAssay (NCI).
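Exposure lasted 48 hours, with cells grown in 96-well plates and compounds tested at five concentrations. TGI is the concentration that stops growth completely.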

Assays:
Experiment in all cases: NCI anticancer screen, dose series, 48 h
SNB-19 CNS = test system: SNB-19 CNS
EKVX NSCLC = test system: EKVX NSCLC
UO-31 renal = test system: UO-31 renal
SK-OV-3 ovarian = test system: SK-OV-3 ovarian
DMS 273 small cell lung = test system: DMS 273 small cell lung
A549 NSCLC = test system: A549 NSCLC
ACHN renal = test system: ACHN renal
RXF 393 renal = test system: RXF 393 renal
SK-MEL-28 melanoma = test system: SK-MEL-28 melanoma
SNB-78 CNS = test system: SNB-78 CNS
M14 melanoma = test system: M14 melanoma
NCI-H522 lung = test system: NCI-H522 lung
RXF-631 renal = test system: RXF-631 renal
TK-10 renal = test system: TK-10 renal
U251 CNS = test system: U251 CNS
IGROV1 ovarian = test system: IGROV1 ovarian
HOP-92 NSCLC = test system: HOP-92 NSCLC
NCI-H226 lung = test system: NCI-H226 lung
M19-MEL melanoma = test system: M19-MEL melanoma
OVCAR-8 ovarian = test system: OVCAR-8 ovarian
SR leukemia = test system: SR leukemia
SF-295 CNS = test system: SF-295 CNS
HOP-62 NSCLC = test system: HOP-62 NSCLC
KM12 colon = test system: KM12 colon
HL-60(TB) leukemia = test system: HL-60(TB) leukemia
CCRF-CEM leukemia = test system: CCRF-CEM leukemia
HCT-116 colon = test system: HCT-116 colon
OVCAR-5 ovarian = test system: OVCAR-5 ovarian
MOLT-4 leukemia = test system: MOLT-4 leukemia
UACC-257 melanoma = test system: UACC-257 melanoma
NCI-H460 lung = test system: NCI-H460 lung
A498 renal = test system: A498 renal
HT29 colon = test system: HT29 colon
NCI-H23 lung = test system: NCI-H23 lung
COLO 205 colon = test system: COLO 205 colon
HOP-18 NSCLC = test system: HOP-18 NSCLC
HCT-15 colon = test system: HCT-15 colon
LOX IMVI melanoma = test system: LOX IMVI melanoma
KM20L2 colon = test system: KM20L2 colon
XF 498 CNS = test system: XF 498 CNS
SK-MEL-2 melanoma = test system: SK-MEL-2 melanoma
786-0 renal = test system: 786-0 renal
OVCAR-4 ovarian = test system: OVCAR-4 ovarian
K-562 leukemia = test system: K-562 leukemia
MALME-3M melanoma = test system: MALME-3M melanoma
SF-539 CNS = test system: SF-539 CNS
SN12C renal = test system: SN12C renal
LXFL 529 NSCLC = test system: LXFL 529 NSCLC
SK-MEL-5 melanoma = test system: SK-MEL-5 melanoma
HCC-2998 colon = test system: HCC-2998 colon
SW-620 colon = test system: SW-620 colon
SF-268 CNS = test system: SF-268 CNS
DMS 114 small cell lung = test system: DMS 114 small cell lung
SNB-75 CNS = test system: SNB-75 CNS
OVCAR-3 ovarian = test system: OVCAR-3 ovarian
DLD-1 colon = test system: DLD-1 colon
RPMI-8226 leukemia = test system: RPMI-8226 leukemia
UACC-62 melanoma = test system: UACC-62 melanoma
CAKI-1 renal = test system: CAKI-1 renal

SMILES: CCCC(=O)OCC1OC2OC(C)(C)OC2C2OC(C)(C)OC12 (stereo unspecified)
- TGI (SNB-19 CNS): > 100 µM
- TGI (EKVX NSCLC): > 100 µM
- TGI (UO-31 renal): > 100 µM
- TGI (SK-OV-3 ovarian): > 100 µM
- TGI (DMS 273 small cell lung): > 100 µM
- TGI (A549 NSCLC): > 100 µM
- TGI (ACHN renal): > 100 µM
- TGI (RXF 393 renal): > 100 µM
- TGI (SK-MEL-28 melanoma): > 100 µM
- TGI (SNB-78 CNS): > 100 µM
- TGI (M14 melanoma): > 100 µM
- TGI (NCI-H522 lung): > 100 µM
- TGI (RXF-631 renal): > 100 µM
- TGI (TK-10 renal): 61.1 µM
- TGI (U251 CNS): > 100 µM
- TGI (IGROV1 ovarian): > 100 µM
- TGI (HOP-92 NSCLC): > 100 µM
- TGI (NCI-H226 lung): > 100 µM
- TGI (M19-MEL melanoma): > 100 µM
- TGI (OVCAR-8 ovarian): > 100 µM
- TGI (SR leukemia): > 100 µM
- TGI (SF-295 CNS): > 100 µM
- TGI (HOP-62 NSCLC): > 100 µM
- TGI (KM12 colon): > 100 µM
- TGI (HL-60(TB) leukemia): > 100 µM
- TGI (CCRF-CEM leukemia): > 100 µM
- TGI (HCT-116 colon): > 100 µM
- TGI (OVCAR-5 ovarian): > 100 µM
- TGI (MOLT-4 leukemia): > 100 µM
- TGI (UACC-257 melanoma): > 100 µM
- TGI (NCI-H460 lung): > 100 µM
- TGI (A498 renal): > 100 µM
- TGI (HT29 colon): > 100 µM
- TGI (NCI-H23 lung): > 100 µM

SMILES: [N-]=[N+]=CC(=O)C1(C(=O)C=[N+]=[N-])CC1
- TGI (SNB-19 CNS): > 100 µM
- TGI (COLO 205 colon): > 100 µM
- TGI (EKVX NSCLC): > 100 µM
- TGI (UO-31 renal): > 100 µM
- TGI (SK-OV-3 ovarian): > 100 µM
- TGI (HOP-18 NSCLC): > 100 µM
- TGI (DMS 273 small cell lung): > 100 µM
- TGI (A549 NSCLC): > 100 µM
- TGI (ACHN renal): > 100 µM
- TGI (RXF 393 renal): > 100 µM
- TGI (HCT-15 colon): > 100 µM
- TGI (LOX IMVI melanoma): > 100 µM
- TGI (KM20L2 colon): > 100 µM
- TGI (SK-MEL-28 melanoma): > 100 µM
- TGI (SNB-78 CNS): > 100 µM
- TGI (XF 498 CNS): > 100 µM
- TGI (M14 melanoma): > 100 µM
- TGI (NCI-H522 lung): > 100 µM
- TGI (SK-MEL-2 melanoma): > 100 µM
- TGI (786-0 renal): > 100 µM
- TGI (OVCAR-4 ovarian): > 100 µM
- TGI (TK-10 renal): > 100 µM
- TGI (U251 CNS): > 100 µM
- TGI (K-562 leukemia): > 100 µM
- TGI (IGROV1 ovarian): > 100 µM
- TGI (MALME-3M melanoma): > 100 µM
- TGI (NCI-H226 lung): > 100 µM
- TGI (SF-539 CNS): > 100 µM
- TGI (M19-MEL melanoma): > 100 µM
- TGI (OVCAR-8 ovarian): > 100 µM
- TGI (SR leukemia): > 100 µM
- TGI (SF-295 CNS): > 100 µM
- TGI (HOP-62 NSCLC): > 100 µM
- TGI (KM12 colon): > 100 µM
- TGI (HL-60(TB) leukemia): > 100 µM
- TGI (SN12C renal): > 100 µM
- TGI (CCRF-CEM leukemia): > 100 µM
- TGI (LXFL 529 NSCLC): > 100 µM
- TGI (HCT-116 colon): > 100 µM
- TGI (SK-MEL-5 melanoma): > 100 µM
- TGI (OVCAR-5 ovarian): > 100 µM
- TGI (HCC-2998 colon): > 100 µM
- TGI (MOLT-4 leukemia): > 100 µM
- TGI (SW-620 colon): > 100 µM
- TGI (SF-268 CNS): > 100 µM
- TGI (DMS 114 small cell lung): > 100 µM
- TGI (UACC-257 melanoma): > 100 µM
- TGI (SNB-75 CNS): > 100 µM
- TGI (OVCAR-3 ovarian): > 100 µM
- TGI (NCI-H460 lung): > 100 µM
- TGI (A498 renal): > 100 µM
- TGI (HT29 colon): > 100 µM
- TGI (NCI-H23 lung): > 100 µM

SMILES: O/N=C1/CCC/C1=C\c1ccccc1
- TGI (SNB-19 CNS): > 100 µM
- TGI (COLO 205 colon): > 100 µM
- TGI (EKVX NSCLC): > 100 µM
- TGI (UO-31 renal): > 100 µM
- TGI (SK-OV-3 ovarian): > 100 µM
- TGI (HOP-18 NSCLC): > 100 µM
- TGI (DMS 273 small cell lung): > 100 µM
- TGI (A549 NSCLC): > 100 µM
- TGI (ACHN renal): > 100 µM
- TGI (RXF 393 renal): > 100 µM
- TGI (HCT-15 colon): > 100 µM
- TGI (LOX IMVI melanoma): > 100 µM
- TGI (KM20L2 colon): > 100 µM
- TGI (SK-MEL-28 melanoma): > 100 µM
- TGI (SNB-78 CNS): > 100 µM
- TGI (XF 498 CNS): > 100 µM
- TGI (M14 melanoma): > 100 µM
- TGI (NCI-H522 lung): > 100 µM
- TGI (SK-MEL-2 melanoma): > 100 µM
- TGI (786-0 renal): > 100 µM
- TGI (OVCAR-4 ovarian): > 100 µM
- TGI (TK-10 renal): > 100 µM
- TGI (U251 CNS): > 100 µM
- TGI (K-562 leukemia): > 100 µM
- TGI (IGROV1 ovarian): > 100 µM
- TGI (DLD-1 colon): > 100 µM
- TGI (MALME-3M melanoma): > 100 µM
- TGI (RPMI-8226 leukemia): > 100 µM
- TGI (HOP-92 NSCLC): > 100 µM
- TGI (NCI-H226 lung): > 100 µM
- TGI (SF-539 CNS): > 100 µM
- TGI (OVCAR-8 ovarian): > 100 µM
- TGI (SR leukemia): > 100 µM
- TGI (SF-295 CNS): > 100 µM
- TGI (HOP-62 NSCLC): > 100 µM
- TGI (KM12 colon): > 100 µM
- TGI (HL-60(TB) leukemia): > 100 µM
- TGI (SN12C renal): > 100 µM
- TGI (UACC-62 melanoma): > 100 µM
- TGI (CAKI-1 renal): > 100 µM
- TGI (CCRF-CEM leukemia): > 100 µM
- TGI (LXFL 529 NSCLC): > 100 µM
- TGI (HCT-116 colon): > 100 µM
- TGI (SK-MEL-5 melanoma): > 100 µM
- TGI (OVCAR-5 ovarian): > 100 µM
- TGI (HCC-2998 colon): > 100 µM
- TGI (MOLT-4 leukemia): > 100 µM
- TGI (SW-620 colon): > 100 µM
- TGI (SF-268 CNS): > 100 µM
- TGI (UACC-257 melanoma): > 100 µM
- TGI (SNB-75 CNS): 44.8 µM
- TGI (OVCAR-3 ovarian): > 100 µM
- TGI (NCI-H460 lung): > 100 µM
- TGI (NCI-H23 lung): > 100 µM
